Values of other authors as cited in patent publication US20240043928A1, “BIOMARKERS FOR MYELODYSPLASTIC SYNDROME (MDS) AND METHODS OF USING THE SAME” (Eisai R&D Management Co., Ltd., priority 2020, published 2024).

Conditions: subjects of a prior phase 1 trial; cited from earlier work

In the case of `CC[C@H](O)[C@@H](C)[C@H]1O[C@@H]1C[C@@](C)(O)/C=C/C=C(\C)[C@H]1OC(=O)C[C@H](O)CC[C@@](C)(O)[C@@H](OC(=O)N2CCN(C3CCCCCC3)CC2)/C=C/[C@@H]1C` [Compound E7107], the visual loss is listed as “visual loss was observed”.
